Test results as given in US20140005163A1 (NOVARTIS AG, priority 2010, published 2014).

What was measured:
PI3K alpha = target: T1, PI3K alpha (Homo sapiens, UniProt P42336); assay: PI3K alpha kinase assay (Kinase-Glo luminescence); assay type: biochemical
T1 construct: p85(iSH2) fusion partner (see partner chain) (N); His tag (C); made in house; host or cells: baculovirus; Tn5 (Trichoplusia ni) or TiniPro insect cells
Summary of the method: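 Read-out: Kinase-Glo luminescence of ATP left after 60 min at room temperature. Conditions: 10 nM PI3Kα (EMV B1075), 1 μM ATP, 10 μg/mL PI substrate, Tris pH 7.5 buffer with MgCl2, NaCl, CHAPS and DTT. IC50s fitted with a four-parameter logistic model.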

mTOR = target: T2, mTOR (Homo sapiens, UniProt P42345); assay: Biochemical assay for m-TOR by TR-FRET; conditions: 8 μM ATP, 400 nM GFP-4EBP1, 0.5 nM mTOR
T2 construct: purchased Invitrogen Corporation (Carlsbad/CA, USA) PV4753
T2 sequence (P42345 1360-2549 limits assumed): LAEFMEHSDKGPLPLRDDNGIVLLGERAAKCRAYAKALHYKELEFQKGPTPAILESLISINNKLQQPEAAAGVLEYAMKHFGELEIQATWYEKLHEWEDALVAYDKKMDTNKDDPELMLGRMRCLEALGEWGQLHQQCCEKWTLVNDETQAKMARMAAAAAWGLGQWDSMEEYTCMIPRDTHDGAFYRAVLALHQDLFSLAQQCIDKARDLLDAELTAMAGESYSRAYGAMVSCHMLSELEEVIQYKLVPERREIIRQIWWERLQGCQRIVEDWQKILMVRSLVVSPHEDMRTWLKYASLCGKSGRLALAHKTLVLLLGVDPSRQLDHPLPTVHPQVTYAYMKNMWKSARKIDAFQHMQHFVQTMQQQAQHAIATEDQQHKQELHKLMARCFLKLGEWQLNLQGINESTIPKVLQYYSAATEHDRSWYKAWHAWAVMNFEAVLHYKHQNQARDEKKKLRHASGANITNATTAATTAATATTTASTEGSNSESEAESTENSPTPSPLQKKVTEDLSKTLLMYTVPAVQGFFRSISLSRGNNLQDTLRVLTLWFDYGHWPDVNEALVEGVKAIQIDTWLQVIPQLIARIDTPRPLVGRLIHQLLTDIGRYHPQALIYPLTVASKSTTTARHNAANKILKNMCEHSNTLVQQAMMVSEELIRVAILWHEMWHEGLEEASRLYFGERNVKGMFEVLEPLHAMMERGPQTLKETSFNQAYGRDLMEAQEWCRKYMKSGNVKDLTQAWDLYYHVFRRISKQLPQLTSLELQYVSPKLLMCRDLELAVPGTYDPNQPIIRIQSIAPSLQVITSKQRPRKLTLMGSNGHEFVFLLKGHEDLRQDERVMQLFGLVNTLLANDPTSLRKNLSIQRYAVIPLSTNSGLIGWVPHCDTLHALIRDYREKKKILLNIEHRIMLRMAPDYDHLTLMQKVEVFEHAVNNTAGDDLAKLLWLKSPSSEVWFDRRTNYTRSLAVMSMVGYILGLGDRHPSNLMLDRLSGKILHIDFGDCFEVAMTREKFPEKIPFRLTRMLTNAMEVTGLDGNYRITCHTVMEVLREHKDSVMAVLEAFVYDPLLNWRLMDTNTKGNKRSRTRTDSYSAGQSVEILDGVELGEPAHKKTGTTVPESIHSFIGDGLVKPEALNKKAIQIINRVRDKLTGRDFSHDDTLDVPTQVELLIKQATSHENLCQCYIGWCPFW
Summary of the method: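 Enzyme 0.5 nM, GFP-4EBP1 400 nM, ATP 8 μM (all final); 50 mM HEPES pH 7.5, 10 mM MnCl2, 1 mM DTT; rt. Detection: Tb-α-p4EBP1 [pT46] 0.5 nM in EDTA, TR-FRET, 15 min. Reference compound on every plate, 16-point duplicate dilutions.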

[1] = tested on: S6 Ribosomal Protein phosphorylation Ser235/236 in TSC1 null mouse embryo fibroblast (MEF) cells; assay: Reverse protein array assay, S6 Ribosomal Protein phosphorylation Ser235/236 in TSC1 null MEF cells; assay type: cell-based; conditions: 1 h, pS6 ribosomal protein Ser235/236, 60 minutes incubation, read-out: p-S6 IC50
Summary of the method: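 TSC1−/− MEFs, seeded and held ≥20 h at 37 °C/5% CO2, were exposed to 8-step serial compound dilutions (0.02% DMSO final; DMSO vehicle control) for 60 min at 37 °C. Cells were then lysed on ice for 10 min and lysates spotted onto reverse protein array chips.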

T1 sequence (P42336 with tags, fused parts or gaps limits assumed): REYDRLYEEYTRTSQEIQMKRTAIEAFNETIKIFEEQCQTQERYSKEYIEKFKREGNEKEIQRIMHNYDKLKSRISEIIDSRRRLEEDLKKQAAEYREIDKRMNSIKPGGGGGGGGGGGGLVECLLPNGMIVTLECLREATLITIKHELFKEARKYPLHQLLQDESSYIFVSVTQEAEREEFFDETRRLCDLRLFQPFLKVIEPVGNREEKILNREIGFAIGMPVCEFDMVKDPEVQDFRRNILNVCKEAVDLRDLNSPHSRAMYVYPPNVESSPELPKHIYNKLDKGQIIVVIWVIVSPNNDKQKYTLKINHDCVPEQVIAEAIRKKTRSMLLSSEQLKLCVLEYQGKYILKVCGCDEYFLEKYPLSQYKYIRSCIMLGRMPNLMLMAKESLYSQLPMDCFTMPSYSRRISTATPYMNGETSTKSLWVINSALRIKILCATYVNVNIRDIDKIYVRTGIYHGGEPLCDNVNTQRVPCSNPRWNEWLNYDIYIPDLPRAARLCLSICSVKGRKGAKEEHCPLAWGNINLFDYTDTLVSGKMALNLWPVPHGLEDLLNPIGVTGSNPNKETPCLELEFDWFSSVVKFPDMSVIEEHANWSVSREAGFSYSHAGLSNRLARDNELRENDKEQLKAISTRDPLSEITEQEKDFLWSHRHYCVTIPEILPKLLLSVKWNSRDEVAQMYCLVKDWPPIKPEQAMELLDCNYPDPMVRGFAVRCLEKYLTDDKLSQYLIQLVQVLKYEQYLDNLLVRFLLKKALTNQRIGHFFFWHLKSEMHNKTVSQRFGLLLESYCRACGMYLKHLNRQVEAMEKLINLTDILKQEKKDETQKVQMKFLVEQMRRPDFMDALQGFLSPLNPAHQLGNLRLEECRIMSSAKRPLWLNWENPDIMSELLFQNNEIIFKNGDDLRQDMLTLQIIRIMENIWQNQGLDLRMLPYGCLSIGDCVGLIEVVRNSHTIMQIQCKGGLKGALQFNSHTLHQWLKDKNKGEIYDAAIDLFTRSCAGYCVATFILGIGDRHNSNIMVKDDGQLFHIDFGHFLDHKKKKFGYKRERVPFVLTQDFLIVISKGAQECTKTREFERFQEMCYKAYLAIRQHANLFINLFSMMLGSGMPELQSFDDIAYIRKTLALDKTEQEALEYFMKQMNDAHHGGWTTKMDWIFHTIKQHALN

SMILES	IC50 (PI3K alpha)	IC50 (mTOR)	IC50 [1]
COc1ccc(-c2ccc3ncc4c(c3c2)n(-c2ccnn2C)c(=O)n4C)cc1OC [Example 1.3, 8-(3,4-Dimethoxy-phenyl)-3-methyl-1-(2-methyl-2H-pyrazol-3-yl)-1,3-dihydro-imidazo[4,5-c]quinolin-2-one]	14 nM	132 nM	
COc1ccc(-c2ccc3ncc4c(c3c2)n(-c2cn(C)nc2C)c(=O)n4C)cc1OC [Example 1.8, 8-(3,4-Dimethoxy-phenyl)-1-(1,3-dimethyl-1H-pyrazol-4-yl)-3-methyl-1,3-dihydro-imidazo[4,5-c]quinolin-2-one]	6 nM	6 nM	< 5 nM
COc1ccc(-c2ccc3ncc4c(c3c2)n(-c2cc(C)nn2C)c(=O)n4C)cn1 [Example 2.3, 1-(2,5-Dimethyl-2H-pyrazol-3-yl)-8-(6-methoxy-pyridin-3-yl)-3-methyl-1,3-dihydro-imidazo[4,5-c]quinolin-2-one]	30 nM	96 nM	
COc1ccc(-c2ccc3ncc4c(c3c2)n(-c2cn(C(C)C)nc2C)c(=O)n4C)cn1 [Example 2.8, 1-(1-Isopropyl-3-methyl-1H-pyrazol-4-yl)-8-(6-methoxy-pyridin-3-yl)-3-methyl-1,3-dihydro-imidazo[4,5-c]quinolin-2-one]	29 nM	33 nM	21 nM
CCOc1ccc(-c2ccc3ncc4c(c3c2)n(-c2ccnn2CC)c(=O)n4C)cn1 [Example 3.4, 8-(6-Ethoxy-pyridin-3-yl)-1-(2-ethyl-2H-pyrazol-3-yl)-3-methyl-1,3-dihydro-imidazo[4,5-c]quinolin-2-one]	217 nM	161 nM	199 nM
CCOc1ccc(-c2ccc3ncc4c(c3c2)n(-c2cn(CC)nc2C)c(=O)n4C)cn1 [Example 3.5, 8-(6-Ethoxy-pyridin-3-yl)-1-(1-ethyl-3-methyl-1H-pyrazol-4-yl)-3-methyl-1,3-dihydro-imidazo[4,5-c]quinolin-2-one]	37 nM	17 nM	58 nM
CCOc1ccc(-c2ccc3ncc4c(c3c2)n(-c2cnn(C)c2C)c(=O)n4C)cn1 [Example 3.6, 1-(1,5-Dimethyl-1H-pyrazol-4-yl)-8-(6-ethoxy-pyridin-3-yl)-3-methyl-1,3-dihydro-imidazo[4,5-c]quinolin-2-one]	50 nM	191 nM	15 nM
Cc1nn(C(C)C)cc1-n1c(=O)n(C)c2cnc3ccc(-c4ccc(N(C)C)nc4)cc3c21 [Example 4.1, 8-(6-Dimethylamino-pyridin-3-yl)-1-(1-isopropyl-3-methyl-1H-pyrazol-4-yl)-3-methyl-1,3-dihydro-imidazo[4,5-c]quinolin-2-one]	60 nM	30 nM	15 nM
CCn1cc(-n2c(=O)n(C)c3cnc4ccc(-c5cnc(N(C)C)nc5)cc4c32)c(C)n1 [Example 6.4, 8-(2-Dimethylamino-pyrimidin-5-yl)-1-(1-ethyl-3-methyl-1H-pyrazol-4-yl)-3-methyl-1,3-dihydro-imidazo[4,5-c]quinolin-2-one]	60 nM	33 nM	10 nM
CNC(=O)c1ccc(-c2ccc3ncc4c(c3c2)n(-c2cn(C(C)C)nc2C)c(=O)n4C)cn1 [Example 15.3, 5-[1-(1-Isopropyl-3-methyl-1H-pyrazol-4-yl)-3-methyl-2-oxo-2,3-dihydro-1H-imidazo[4,5-c]quinolin-8-yl]-pyridine-2-carboxylic acid methylamide]	123 nM	12 nM	17 nM
Cc1nn(C)cc1-n1c(=O)n(C)c2cnc3ccc(-c4ccc(CO)nc4)cc3c21 [Example 16.2, 1-(1,3-Dimethyl-1H-pyrazol-4-yl)-8-(6-hydroxymethyl-pyridin-3-yl)-3-methyl-1,3-dihydro-imidazo[4,5-c]quinolin-2-one]	26 nM	23 nM	181 nM
COCCOc1ccc(-c2ccc3ncc4c(c3c2)n(-c2cn(C)nc2C)c(=O)n4C)cn1 [Example 18, 1-(1,3-Dimethyl-1H-pyrazol-4-yl)-8-[6-(2-methoxy-ethoxy)-pyridin-3-yl]-3-methyl-1,3-dihydro-imidazo[4,5-c]quinolin-2-one]	86 nM	123 nM	
CCOc1ccc(-c2ccc3ncc4c(c3c2)n(-c2cn(CC)nc2C)c(=O)n4C)cc1OCC [Example 27.1, 8-(3,4-Diethoxy-phenyl)-1-(1-ethyl-3-methyl-1H-pyrazol-4-yl)-3-methyl-1,3-dihydro-imidazo[4,5-c]quinolin-2-one]	8 nM	49 nM	13 nM
CCOc1cc(-c2ccc3ncc4c(c3c2)n(-c2cn(CC)nc2C)c(=O)n4C)ccc1OC [Example 28.1, 8-(3-Ethoxy-4-methoxy-phenyl)-1-(1-ethyl-3-methyl-1H-pyrazol-4-yl)-3-methyl-1,3-dihydro-imidazo[4,5-c]quinolin-2-one]	< 3 nM	16 nM	< 5 nM
CCOc1cc(-c2ccc3ncc4c(c3c2)n(-c2c(C)nn(C)c2C)c(=O)n4C)ccc1OC [Example 28.2, 8-(3-Ethoxy-4-methoxy-phenyl)-3-methyl-1-(1,3,5-trimethyl-1H-pyrazol-4-yl)-1,3-dihydro-imidazo[4,5-c]quinolin-2-one]	62 nM	549 nM	
CCOc1cc(-c2ccc3ncc4c(c3c2)n(-c2cn(C)nc2C)c(=O)n4C)ccc1OC [Example 28.3, 1-(1,3-Dimethyl-1H-pyrazo1-4-yl)-8-(3-ethoxy-4-methoxy-phenyl)-3-methyl-1,3-dihydro-imidazo[4,5-c]quinolin-2-one]	13 nM	13 nM	2 nM
CCOc1ccc(-c2ccc3ncc4c(c3c2)n(-c2cn(C)nc2C)c(=O)n4C)cc1OC [Example 29.3, 1-(1,3-Dimethyl-1H-pyrazol-4-yl)-8-(4-ethoxy-3-methoxy-phenyl)-3-methyl-1,3-dihydro-imidazo[4,5-c]quinolin-2-one]	11 nM	7 nM	4 nM
CCn1cc(-n2c(=O)n(C)c3cnc4ccc(-c5ccc(OCCOC)c(OC)c5)cc4c32)c(C)n1 [Example 30.2, 1-(1-Ethyl-3-methyl-1H-pyrazol-4-yl)-8-[3-methoxy-4-(2-methoxy-ethoxy)-phenyl]-3-methyl-1,3-dihydro-imidazo[4,5-c]quinolin-2-one]	30 nM	54 nM	41 nM
Cc1nn(C)cc1-n1c(=O)n(C)c2cnc3ccc(-c4cccc(O)c4)cc3c21 [Example 32.1, 1-(1,3-Dimethyl-1H-pyrazol-4-yl)-8-(3-hydroxy-phenyl)-3-methyl-1,3-dihydro-imidazo[4,5-c]quinolin-2-one]	7 nM	28 nM	11 nM
Cc1nn(C)cc1-n1c(=O)n(C)c2cnc3ccc(-c4cccc5c4OC(F)(F)O5)cc3c21 [Example 35, 8-(2,2-Difluoro-benzo[1,3]dioxol-4-yl)-1-(1,3-dimethyl-1H-pyrazol-4-yl)-3-methyl-1,3-dihydro-imidazo[4,5-c]quinolin-2-one]	5 nM	51 nM	2 nM
Cc1nn(C)cc1-n1c(=O)n(C)c2cnc3ccc(-c4ccccc4)cc3c21 [Example 37.1, 1-(1,3-Dimethyl-1H-pyrazol-4-yl)-3-methyl-8-phenyl-1,3-dihydro-imidazo[4,5-c]quinolin-2-one]	34 nM	213 nM	30 nM
Cc1nn(CC(=O)N(C)C)cc1-n1c(=O)n(C)c2cnc3ccc(-c4ccccc4)cc3c21 [Example 37.3, N,N-Dimethyl-2-[3-methyl-4-(3-methyl-2-oxo-8-phenyl-2,3-dihydro-imidazo[4,5-c]quinolin-1-yl)-pyrazol-1-yl]-acetamide]	71 nM	19 nM	15 nM
COc1ncc(-c2ccc3ncc4c(c3c2)n(-c2cn(C)nc2C)c(=O)n4C)cc1[N+](=O)[O-] [Example 66, 1-(1,3-dimethyl-1H-pyrazol-4-yl)-8-(6-methoxy-5-nitro-pyridin-3-yl)-3-methyl-1,3-dihydro-imidazo[4,5-c]quinolin-2-one]	36 nM	207 nM	
Cc1nn(C)cc1-n1c(=O)n(C)c2cnc3ccc(-c4cncc(N(C)S(C)(=O)=O)c4)cc3c21 [Example 121, N-{5-[1-(1,3-Dimethyl-1H-pyrazol-4-yl)-3-methyl-2-oxo-2,3-dihydro-1H-imidazo[4,5-c]quinolin-8-yl]-pyridin-3-yl}-N-methyl-methanesulfonamide]	19 nM	91 nM	
CCn1cc(-n2c(=O)n(C)c3cnc4ccc(-c5cnc(NC)nc5OC)cc4c32)c(C)n1 [Example 236, 1-(1-Ethyl-3-methyl-1H-pyrazol-4-yl)-8-(4-methoxy-2-methylamino-pyrimidin-5-yl)-3-methyl-1,3-dihydro-imidazo[4,5-c]quinolin-2-one]	15 nM	< 3 nM	
